Counter-ions that a name gives are not always drawn. Like-named read-outs stand apart in the source and are kept apart here.
Experiments:
Assay type in all cases: biochemical
mMASP-2 = mMASP-2 (Mus musculus (Mouse), UniProt Q91WP0); test: Enzymatic inhibition of mMASP-2
human α-thrombin = human α-thrombin (Homo sapiens (Human), UniProt P00734); test: Enzymatic assay for thrombin (Boc-VPR-AMC substrate)
MASP-2 (CCP1-CCP2-SP) = MASP-2 (CCP1-CCP2-SP) (Homo sapiens (Human), UniProt O00187); test: biochemical
Chain of MASP-2 (CCP1-CCP2-SP) (O00187 445-686): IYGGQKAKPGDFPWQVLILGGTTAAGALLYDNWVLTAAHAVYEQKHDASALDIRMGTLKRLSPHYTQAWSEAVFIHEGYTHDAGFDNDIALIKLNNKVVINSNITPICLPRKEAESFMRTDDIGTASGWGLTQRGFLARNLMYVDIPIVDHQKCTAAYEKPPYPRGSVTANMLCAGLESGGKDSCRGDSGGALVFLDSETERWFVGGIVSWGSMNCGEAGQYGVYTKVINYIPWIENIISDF

[1] = selectivity for MASP-2 inhibition versus thrombin
[2] = MASP-2 inhibition versus thrombin

Chain of mMASP-2 (Q91WP0 20-685): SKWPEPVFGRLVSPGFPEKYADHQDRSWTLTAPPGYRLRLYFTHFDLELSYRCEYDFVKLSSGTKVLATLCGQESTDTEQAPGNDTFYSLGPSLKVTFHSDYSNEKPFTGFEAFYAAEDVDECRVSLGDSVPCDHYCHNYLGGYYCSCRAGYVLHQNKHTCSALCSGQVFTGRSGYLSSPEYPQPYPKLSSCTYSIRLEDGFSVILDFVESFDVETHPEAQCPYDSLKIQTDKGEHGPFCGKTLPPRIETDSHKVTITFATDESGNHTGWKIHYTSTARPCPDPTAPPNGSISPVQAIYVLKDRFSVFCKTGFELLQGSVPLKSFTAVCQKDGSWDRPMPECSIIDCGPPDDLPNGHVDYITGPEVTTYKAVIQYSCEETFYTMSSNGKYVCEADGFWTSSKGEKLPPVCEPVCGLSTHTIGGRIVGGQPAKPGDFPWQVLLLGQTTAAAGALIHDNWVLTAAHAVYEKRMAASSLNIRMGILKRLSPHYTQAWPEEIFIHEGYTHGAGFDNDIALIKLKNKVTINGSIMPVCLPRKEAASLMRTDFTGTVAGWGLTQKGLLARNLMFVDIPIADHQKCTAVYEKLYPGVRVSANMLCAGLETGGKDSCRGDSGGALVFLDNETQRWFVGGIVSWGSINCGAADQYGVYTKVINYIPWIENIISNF

SMILES | Ki (mMASP-2; read-out: mMASP-2 Ki) [nM] | Ki (human α-thrombin; Thrombin Ki (μM)) [µM] | Ki (MASP-2 (CCP1-CCP2-SP); read-out: MASP-2 Ki) [µM] | MASP-2 vs. thrombin selectivity (MASP-2 (CCP1-CCP2-SP); [1]) | Ki (human α-thrombin; read-out: Thrombin Ki) [µM] | MASP-2 vs. thrombin selectivity (MASP-2 (CCP1-CCP2-SP); [2]) | Ki (MASP-2 (CCP1-CCP2-SP)) [µM] | Ki (mMASP-2) [nM] | Ki (MASP-2 (CCP1-CCP2-SP); MASP-2 Ki (μM)) [µM]
Cc1nc(N)ccc1CNC(=O)[C@H](C)NC(=O)[C@H]1C[C@H](Cc2ccccc2)CN1 [compound 1304, (2R,4S)—N—((S)-1-(((6-Amino-2-methylpyridin-3-yl)methyl)amino)-1-oxopropan-2-yl)-4-benzylpyrrolidine-2-carboxamide Dihydrochloride] | 500 to 2500 | 0.5 to 2.5 | < 0.5 | *** (≥25 to <100-fold) |  |  |  |  | 
Cc1cccc(CC[C@@H](N)C(=O)N[C@@H](C)C(=O)NCc2ccc(C(=N)N)cc2)c1 [compound 1046] | < 500 |  | < 0.5 |  | < 0.5 | ** (5.0 to 25-fold) |  |  | 
Cc1nc(N)ccc1CNC(=O)[C@@H](C)NC(=O)[C@H]1C[C@H](Cc2cccc(C(F)(F)F)c2)C(=O)N1 [compound 1321, (2R,4S)—N—((R)-1-(((6-Amino-2-methylpyridin-3-yl)methyl)amino)-1-oxopropan-2-yl)-5-oxo-4-(3-(trifluoromethyl)benzyl)pyrrolidine-2-carboxamide Di-trifluoroacetate salt] | > 25000 |  |  |  | > 25 |  | 10 to 25 |  | 
C[C@H](NC(=O)[C@H]1C[C@H](c2ccccc2)CN1)C(=O)NCc1ccc(C(=N)NC(=O)OCC(Cl)(Cl)Cl)cc1 [compound 1288, 2,2,2-Trichloroethyl (imino(4-(((S)-2-((2R,4R)-4-phenylpyrrolidine-2-carboxamido)propanamido)methyl)phenyl)methyl)carbamate] |  |  |  |  | > 25 |  |  | 2500 to 10000 | 2.5 to 10
Cc1nc(N)ccc1CNC(=O)[C@H](C)NC(=O)[C@H]1C[C@H](Cc2ccc(OC(F)(F)F)c(Cl)c2)CN1 [compound 1455, (2R,4S)—N—((S)-1-(((6-Amino-2-methylpyridin-3-yl)methyl)amino)-1-oxopropan-2-yl)-4-(3-chloro-4-(trifluoromethoxy)benzyl)pyrrolidine-2-carboxamide Di-trifluoroacetate salt] | < 500 |  | < 0.5 | **** (≥100-fold) | > 25 |  |  |  | 
Cc1cc(Cl)cc(CNC(=O)[C@H](C)NC(=O)[C@H]2CN(c3cccc4ccccc34)CCN2)c1O [compound 1317, (R)—N—((S)-1-((5-Chloro-2-hydroxy-3-methylbenzyl)amino)-1-oxopropan-2-yI)-4-(naphthalen-1-yl)piperazine-2-carboxamide Hydrochloride] | 500 to 2500 |  | < 0.5 |  | > 25 |  |  |  | 
Cc1nc(N)ccc1CNC(=O)[C@H](C)NC(=O)[C@H]1C[C@H](Cc2csc(Cl)c2)CN1 [compound 1461, (2R,4S)—N—((S)-1-(((6-Amino-2-methylpyridin-3-yl)methyl)amino)-1-oxopropan-2-yl)-4-((5-chlorothiophen-3-yl)methyl)pyrrolidine-2-carboxamide Dihydrochloride] | < 500 | 0.5 to 2.5 | < 0.5 | **** (≥100-fold) |  |  |  |  | 
C[C@H](NC(=O)[C@H]1C[C@H](Cc2ccc(-c3ccc(F)cc3C(N)=O)cc2)CN1)C(=O)NCc1cc(Cl)ccc1-n1cnnn1 [compound 1405, (2R,4S)-4-((2′-Carbamoyl-4′-fluoro-[1,1′-biphenyl]-4-yl)methyl)-N-((S)-1-((5-chloro-2-(1H-tetrazol-1-yl)benzyl)amino)-1-oxopropan-2-yl)pyrrolidine-2-carboxamide Hydrochloride] | 500 to 2500 | 0.5 to 2.5 | < 0.5 | ** (≥5.0 to <25-fold) |  |  |  |  | 
C[C@H](NC(=O)[C@@H](CCc1ccccc1)NCc1ccc(N2CCOCC2)cc1)C(=O)NCc1ccc(C(=N)N)cc1 [compound 1149] | < 500 |  | < 0.5 |  | < 0.5 | ** (5.0 to 25-fold) |  |  | 
C[C@H](NC(=O)[C@H]1C[C@H](Cc2ccccc2)CN1)C(=O)NCc1ccc(C(=N)N)cc1 [compound 1306, (2R,4S)-4-Benzyl-N-((S)-1-((4-carbamimidoylbenzyl)amino)-1-oxopropan-2-yl)pyrrolidine-2-carboxamide Dihydrochloride] | < 500 |  | < 0.5 | * (≥1.0 to <5.0-fold) | < 0.5 |  |  |  | 
Cc1nc(N)ccc1CNC(=O)[C@H](C)NC(=O)[C@@H](CCc1ccccc1)NCc1ccc(C(=O)N2CCOCC2)cc1 [compound 1381, (R)—N—((S)-1-(((6-Amino-2-methylpyridin-3-yl)methyl)amino)-1-oxopropan-2-yl)-2-((4-(morpholine-4-carbonyl)benzyl)amino)-4-phenylbutanamide Di-trifluoroacetate salt] | 10000 to 25000 | 10 to 25 |  | ** (≥5.0 to <25-fold) |  |  | 0.5 to 2.5 |  | 
C[C@H](NC(=O)[C@H](N)CCc1ccccc1)C(=O)NCc1cccnc1N [compound 1346, (R)-2-Amino-N—((S)-1-(((2-aminopyridin-3-yl)methyl)amino)-1-oxopropan-2-yl)-4-phenylbutanamide Dihydrochloride] | > 25000 |  |  |  | > 25 |  | 10 to 25 |  | 
C[C@H](NC(=O)[C@@H](CCc1ccccc1)NCc1ccc(-c2nnn[nH]2)cc1)C(=O)NCc1ccc(C(=N)N)cc1 [compound 1233, (R)-2-((4-(1H-Tetrazol-5-yl)benzyl)amino)-N—((S)-1-((4-carbamimidoylbenzyl)amino)-1-oxopropan-2-yl)-4-phenylbutanamide] | < 500 | 0.5 to 2.5 | < 0.5 | * (≥1.0 to <5.0-fold) |  |  |  |  | 
C[C@H](NC(=O)[C@H]1C[C@H](c2ccccc2)CN1)C(=O)NCc1cnc2c(c1)c(Cl)cn2C [compound 1442, (2R,4R)—N—((S)-1-(((3-Chloro-1-methyl-1H-pyrrolo[2,3-b]pyridin-5-yl)methyl)amino)-1-oxopropan-2-yl)-4-phenylpyrrolidine-2-carboxamide Dihydrochloride] | < 500 |  | < 0.5 |  | > 25 |  |  |  | 
C[C@H](NC(=O)[C@H](N)CCc1ccccc1)C(=O)NCc1cnc(N)c(Cl)c1 [compound 1275, (R)-2-Amino-N—((S)-1-(((6-amino-5-chloropyridin-3-yl)methyl)amino)-1-oxopropan-2-yl)-4-phenylbutanamide] | > 25000 |  |  | *** (≥25 to <100-fold) | > 25 |  | 0.5 to 2.5 |  | 
C[C@H](NC(=O)[C@@H](CCc1ccccc1)NCCc1ccccc1)C(=O)NCc1ccc(C(=N)N)cc1 [compound 1340, (R)—N—((S)-1-((4-Carbamimidoylbenzyl)amino)-1-oxopropan-2-yl)-2-(phenethylamino)-4-phenylbutanamide Dihydrochloride] | < 500 |  | < 0.5 | ** (≥5.0 to <25-fold) | < 0.5 |  |  |  | 
C[C@H](NC(=O)[C@H]1C[C@H](c2ccccc2)CN1)C(=O)NCc1cnc2[nH]nc(Cl)c2c1 [compound 1384, (2R,4R)—N—((S)-1-(((3-Chloro-1H-pyrazolo[3,4-b]pyridin-5-yl)methyl)amino)-1-oxopropan-2-yl)-4-phenylpyrrolidine-2-carboxamide Dihydrochloride] | > 25000 |  |  | * (≥1.0 to <5.0-fold) | > 25 |  | 10 to 25 |  | 
